Publication PMC8224775, “Five Tetramic Acid Derivatives Isolated from the Iranian Fungus Colpoma quercinum CCTU A372” (Biomolecules, 2021)
Values after ≈ are worked out from the molar mass of the structure shown. Read-outs that look alike come from different tables or passages of the source.

Columns and labels:
Experiment in all cases: Antimicrobial serial dilution assay (MIC)
Format in all cases: cell-based
[1] = system: Escherichia coli; settings: serial dilution 67 to 0.5 µg/mL, overnight
Description: (§1) Antimicrobial activity was determined by our established protocol, according to Becker et al.. In general, all of the pure compounds were dissolved in MeOH with a concentration of 1 mg/mL. Assessment of the antimicrobial activity was determined using the serial dilution assay method to calculate the minimum inhibitory concentration (MIC). In this method, the compounds were diluted in a range between 67 and 0.5 µg/mL in 96 well-plate and incubated with the test organism overnight. The next day, growth of the test organisms was visually observed, and MIC was determined in the lowest concentration where a clear zone (no growth of test organism) was observed. In our attempt for novel anti-infective compounds, an established standard protocol using various organisms representing a broad spectrum of pathogens of clinical interest, as well as sensitive indicator strains, was used (bacteria: Bacillus subtilis DSM 10, Staphylococcus aureus DSM 346, Acinetobacter baumanii DSM 30008, Chromobacterium violaceum DSM 30191, Escherichia coli DSM 1116 and Pseudomonas aeruginosa PA14; mycobacteria: Mycobacterium smegmatis ATCC 700084 and fungi: Candida albicans DSM 1665, Schizosaccharomyces pombe DSM 70572, Mucor hiemalis DSM 2656, Wickerhamomyces anomala DSM 6766 and Rhodotorula glutinis DSM 10134). Methanol as a solvent to dissolve the pure compounds was used as the negative control. Oxytetracycline, ciprofloxacin, gentamycin, and kanamycin were used as positive controls against bacteria, whereas nystatin was used against fungi. A detailed experimental procedure can be found in the SI.
(§2) Protocol: Antimicrobial Activity Assay
(§3) The assay was conducted as a minimum inhibitory concentration (MIC) assay in 96-well round- bottom microtiter plates using the parameters summarized in Table S1 and as already described in [S1]. Stocks of the test organisms were generated by growing the organisms overnight in 50 mL shaking flasks filled with 25 mL of the growth medium at 140r p m ( media and temperatures see Table S1). If the organisms were well grown the next day, which was checked by the occurrence of an optical density (OD) […] of the suspension (OD600 nm for bacteria, OD548 nm for fungi and M. smegmatis), aliquots of these were stored in 1.5 mL reaction tubes in a freezer at −80 °C for up to 12 months. Upon use, aliquots were unthawed and the OD of the suspension measured and adjusted by diluting with the respective growth medium. OD600 nm was adjusted to 0.01 and OD548 nm to 0.1. Subsequently, 150 μ L of the adj usted suspensions were added to all wells of a 96-well microtiter plate (one test organism per plate). In row A, additional 130 μ L of suspensions plus 20 μ L of the test compounds (1 mg/mL) and the controls (one compound/column) were added. MeOH was used as negative controls, while different positive controls (references) were used for the test organisms (see Table S1). Then, starting from row A, 150 μ L of t he suspension were transferred to the next row, the contents thoroughly mixed, and 150 μ L transferred to the following row. The remaining 150 μ L after row H were discarded. […]
(§4) of the test compounds, ranging from 66.7 μg/mL in row A to 0.52 μ g/mL in row H. The microtiter plates were then incubated overnight on a microplate shaker at 800 rpm at 30 or 37 °C (see Table S1) and were visually evaluated the next day. The MIC is defined as the lowest concentration where no growth of the test organism (clear zone) was observed. A lower MIC thus corresponds to a higher antimicrobial activity of the test compound.
(§5) Table S1: MIC assay experiment parameters test organism strain No growth incubation positive control […]
Escherichia coli DSM1116 MHB1 37 oxytetracyclin 1.0mg/ mL […]
(§6) Candidaa lbicans DSM1665 MYC3 30 nystatin 1.0mg/ mL
(§7) Schizosaccharomyces DSM70572 MYC3 30 nystatin 1.0mg/ mL
(§8) Mucor hiemalis DSM2656 MYC3 30 nystatin 1.0mg/ mL
(§9) Wickerhamomyces DSM6766 MYC3 30 nystatin 1.0mg/ mL
(§10) Rhodotorula glutinis DSM10134 MYC3 30 nystatin 1.0mg/ mL […]

[2] = system: Bacillus subtilis DSM 10; settings: overnight
Description: as §1, §2, §3, §4
Table S1: MIC assay experiment parameters test organism strain No growth incubation positive control
Bacillus subtilis DSM10 MHB1 30 oxytetracyclin 1.0mg/ mL […]
as §6, §7, §8, §9, §10

[3] = system: Acinetobacter baumanii DSM 30008; settings: serial dilution 67 to 0.5 µg/mL, overnight
Description: as §1, §2, §3, §4, §5, §6, §7, §8, §9
(§11) Rhodotorula glutinis DSM10134 MYC3 30 nystatin 1.0mg/ mL
(§12) 1 MHB: Müller-Hinton Broth (SN X927.1, CarlRoth GmbH, Karlsruhe, Germany) […]

[4] = system: Mucor hiemalis DSM 2656; settings: overnight
Description: as §1, §2, §3, §4, §5, §6, §7, §8, §9, §11, §12

[5] = system: Rhodotorula glutinis DSM 10134; settings: serial dilution 67 to 0.5 µg/mL, overnight
Description: as §1, §2, §3, §4, §5, §6, §7, §8, §9, §11, §12

[6] = system: Pichia anomala DSM 6766; settings: serial dilution 67 to 0.5 µg/mL, overnight
Description: as §1, §2, §3, §4, §5, §6, §7, §8, §9, §11, §12

[7] = system: Staphylococcus aureus DSM 346; settings: serial dilution 67 to 0.5 µg/mL, overnight
Description: as §1, §2, §3
as §4, with “A lower MIC thus corresponds to a higher antimicrobial activity of the test compound.” left out

[8] = serial dilution 67 to 0.5 µg/mL

SMILES | MIC [1] | MIC ([2]; DSM10, serial dilution 67 to 0.5 µg/mL, read-out: MIC) | MIC [3] | MIC ([4]; DSM2656, serial dilution 67 to 0.5 µg/mL, read-out: MIC) | MIC [5] | MIC [6] | MIC [2, 8] | MIC [7] | MIC [4, 8]
CCC(C(=O)O)C1C(C)=CC2CC(C)CCC2C1(C)C(O)=C1C(=O)C(C)N(C)C1=O (stereo not shown) [compound 2, Colposetin B] | n.i | 67 mg/L (≈ 160 µM) | n.i | 67 mg/L (≈ 160 µM) | n.i | n.i |  |  | 
CC1=CC2CC(C)CCC2C2(C)C(=O)OC(C(=O)O)C(C)C12 (stereo not shown) [compound 3, Colposetin C] | n.i |  | n.i |  | n.i | n.i | n.i | n.i | n.i
CC(=O)OC(C(=O)O)C(C)C1C(C)=CC2CC(C)CCC2C1(C)C(O)=C1C(=O)C(C)N(C)C1=O (stereo not shown) [compound 1, Colposetin A] | n.i |  | n.i |  | n.i | n.i | n.i | n.i | n.i
CC(C=CCC(C)CCC=C(C)C(=O)C1=C(O)C(C)N(C)C1=O)=CC(C)C(O)C(=O)O (stereo not shown) [compound 4, Colpomenoic acid A] | n.i |  | n.i |  | n.i | n.i | n.i | n.i | n.i
CC(C=CCC(C)C=CC=C(C)C(=O)C1=C(O)C(C)N(C)C1=O)=CC(C)C(O)C(=O)O (stereo not shown) [compound 5, Colpomenoic acid B] | n.i |  | n.i |  | n.i | n.i | n.i | n.i | n.i
